In US20090131351A1, “Methods, compositions, and kits for modulating tumor cell proliferation” (Antisoma Research Limited, priority 2007, published 2009):
Where “and” joins values, the source holds several entries; their conditions need not be identical. Identical values can stand only once.

What was measured:
PANC-1 = assay: Tumor cell line sensitivity to AS1411; assay type: cell-based
Normal fibroblast = assay: Effect of AS1411 on normal cells; assay type: cell-based; details: similar concentrations of AS1411
From the text: (§1) Multiple haematological cancer cell lines were exposed to varying concentrations of AS1411 over a period of 6 days according to the Sulphorhodamine B assay described in Example 1. […] (See FIG. 2). […] Normal fibroblast and B cells were however unaffected by similar concentrations of AS1411.

B cells = assay: Effect of AS1411 on normal cells; assay type: cell-based; details: similar concentrations of AS1411
From the text: as §1

MCF-7 = assay: Tumor cell line sensitivity to AS1411; assay type: cell-based
[1] = tested on: MV4-11 cells (AML cell line); assay: Sulphorhodamine B assay, MV4-11 cells; assay type: cell-based, human; details: 6 days
Method: 1 μM AS1411 was added with varying concentrations of cytarabine (0.002 to 1.5 μM) and cells were incubated for 6 days. A control was run with the 1 μM AS1411 without cytarabine. A second control series was run with the varying amounts of cytarabine but with no AS1411 present.
The remaining cell mass after exposure to AS1411 was measured with a spectrophotometer and IC50 determined.

KATO III = assay: Tumor cell line sensitivity to AS1411; assay type: cell-based
U87-MG = assay: Tumor cell line sensitivity to AS1411; assay type: cell-based
HGC.27 = assay: Tumor cell line sensitivity to AS1411; assay type: cell-based
[2] = tested on: human AML cell line MV4-11 xenografts; assay: Combination therapy in a xenograft mouse model; assay type: in vivo, nu/nu MF1 mouse; details: for Fractional Tumor Volume (FTV) relative to untreated controls: single agent; for Average volume of tumors at 7 days post-treatment (tumor volume change): group average, Cytarabine 80 mg/kg/daily i.p.; for Average volume of tumors at 7 days post-treatment (tumor volume change) / Volume of individual tumors at 7 days post-treatment (indicating tumor volume change): day 7, AS1411 40 mg/kg/day s.c. minipump; for Volume of individual tumors at 7 days post-treatment (indicating tumor volume change): individual mice, Cytarabine 80 mg/kg/daily i.p. 5 days
Method: The nu/nu MF1 mouse strain has been used previously at these laboratories and background data are available. A total of 50 female MF1 mice were obtained from the Biological Research Facility, SGHMS, London) in a weight range of 5 to 6 weeks of age (nominally 23-28 g). Mice were individually identified using a subcutaneously implanted microchip.
The xenografts were prepared from the human AML cell line MV4-11 (DSMZ Number: CCL-102). Cells were grown in accordance with Standard Operating Procedures (SOP) and established methodology; suitable methods are known in the art. Cells were suspended at 2.0×10^8 cells/ml in ice-cold PBS, mixed 1:1 with ice-cold Matrigel™ Matrix (BD Biosciences, Lot 61459) and kept on ice until the time of injection into animals. Mice were injected subcutaneously with 100 μl cell suspension on the right flank.
Animals were checked regularly until visible tumors appeared. Tumors were measured in accordance with the relevant SOP twice per week and tumor volume calculated using the formula: Volume=(π÷6000)×(Tumor Length×Tumor Width×Tumor Height).
Measurements commenced approximately one week before the day of treatment when the xenograft had reached a volume of >0.03 cm^3.
Once the tumors were established, mice were allocated into groups using a randomisation procedure based on stratified xenograft volume. Measurements were recorded electronically using electronic calipers and the Trojan system for data capture.
Day 0 is defined as the day on which the average tumor volume is between 0.07 to 0.08 cm^3. Relative tumor volume on Day 0 is defined as 1.
AS1411 (manufactured by Avecia, UK, batch number: AQV-07H-005; expiry date 02/2009) was given by continuous infusion using ALZET mini-osmotic pumps (Durect Corp. CA, USA). The mini-pumps were implanted subcutaneously on days 0 on the left flank of mice (opposite to the tumor location). Mice received a dose of 40 mg/kg/day with a dose-volume of 1 μl/h lasting for 7 days. The minipumps were then removed and a second drug-loaded minipump implantation in the same location to last a further 7 days.
The intraperitoneal route of administration of Cytarabine was selected. Mice were administered with Cytarabine (DBL, Australia; batch number: TO11966AA; expiry date 02/2009) at 80 mg/kg/daily for 5 consecutive days with a dose-volume of 8 μl/g body weight starting on day 0. After 2 days gap a second cycle of a similar 5-day dosing was initiated on day 7. Control mice were untreated.
Mice (n=10) were allocated to groups as follows: • Untreated controls • Cytarabine alone • AS1411 alone • Cytarabine+AS1411
The Fractional Product method was used to analyse the combination therapy (Yokohama et al., 2000, Cancer Res., 60:2190-6). According to this method, the effects of two drugs, when combined, can be calculated by multiplying the fractional tumor volume (treated volume/control volume on a given day) by each single drug. If the effect of the drugs acting simultaneously is equal to or larger than that calculated, it would be assumed that additivity, or synergism, respectively, has occurred.
[Mean tumor volume test]/[Mean tumor volume control]
[Mean FTV of […]]×[Mean FTV of AS1411]
[Expected FTV]/[Observed FTV]
A combination therapy index R>1.0 indicates a synergistic effect.
A combination therapy index R<1.0 indicates a less than additive effect.

ZR75-1 = assay: Tumor cell line sensitivity to AS1411; assay type: cell-based
A549 = assay: Tumor cell line sensitivity to AS1411; assay type: cell-based
LS174T = assay: Tumor cell line sensitivity to AS1411; assay type: cell-based
SKOV-3 = assay: Tumor cell line sensitivity to AS1411; assay type: cell-based
PC3 = assay: Tumor cell line sensitivity to AS1411; assay type: cell-based
DU-145 = assay: Tumor cell line sensitivity to AS1411; assay type: cell-based
A498 = assay: Tumor cell line sensitivity to AS1411; assay type: cell-based
HT-29 = assay: Tumor cell line sensitivity to AS1411; assay type: cell-based
HL-60 (AML cell line) = assay: Sulphorhodamine B assay, HL-60 cells; assay type: cell-based; details: 6 days, SRB
Method: (§2) MV4-11 cells (AML cell line available and obtained from ATCC under catalogue number CRL-9591) were seeded in wells of a 96-well plate at a number optimised for each cell line. 1 μM AS1411 was added with varying concentrations of cytarabine (0.002 to 1.5 μM) and cells were incubated for 6 days. A control was run with the 1 μM AS1411 without cytarabine. A second control series was run with the varying amounts of cytarabine but with no AS1411 present.
(§3) Cells were then washed, fixed to the 96-well plate and exposed to the dye Sulphorhodamine B (SRB; available from Sigma-Aldrich, Dorset, UK; catalogue number S-1402). The remaining cell mass after exposure to AS1411 was measured with a spectrophotometer and IC50 determined.
as §1

SK-MEL-28 = assay: Tumor cell line sensitivity to AS1411; assay type: cell-based
KG-1 (AML cell line) = assay: Sulphorhodamine B assay, KG-1 cells; assay type: cell-based; details: 6 days, SRB
Method: as §2, §3, §1

AML cell line = assay: Apoptosis, caspase, DNA fragmentation, PS externalization and cell cycle effects of AS1411 in AML cell line; assay type: cell-based; details: AS1411 administered to AML cell line
CALU06 = assay: Tumor cell line sensitivity to AS1411; assay type: cell-based

## 5′-GGTGGTGGTGGTTGTGGTGG TGGTGG-3′ [AS1411]
PANC-1
  sensitivity to AS1411: sensitivity
Normal fibroblast
  effect on normal cells: unaffected
B cells
  effect on normal cells: unaffected
MCF-7
  sensitivity to AS1411: sensitivity
[1]; AS1411 alone, SRB
  IC50: low
KATO III
  sensitivity to AS1411: sensitivity
U87-MG
  sensitivity to AS1411: sensitivity
HGC.27
  sensitivity to AS1411: sensitivity
[2]; Day 0 (defined as 1)
  Relative tumor volume (relative to tumor volume at Day 0 of treatment): 1.000
[2]; Day 4
  Relative tumor volume (relative to tumor volume at Day 0 of treatment): 2.500
  Fractional Tumor Volume (FTV) relative to untreated controls: 0.848
[2]; Day 7
  Relative tumor volume (relative to tumor volume at Day 0 of treatment): 3.900
  Fractional Tumor Volume (FTV) relative to untreated controls: 0.915
[2]
  Average volume of tumors at 7 days post-treatment (tumor volume change): Average = 3.9
  Volume of individual tumors at 7 days post-treatment (indicating tumor volume change): 3.5 and 5.9 and 3.0 and 3.3 and 4.8 and 5.5 and 2.5 (2×) and 3.8 and 4.5 and 1.1
ZR75-1
  sensitivity to AS1411: sensitivity
A549
  sensitivity to AS1411: sensitivity
LS174T
  sensitivity to AS1411: sensitivity
SKOV-3
  sensitivity to AS1411: sensitivity
PC3
  sensitivity to AS1411: sensitivity
DU-145
  sensitivity to AS1411: sensitivity
A498
  sensitivity to AS1411: sensitivity
HT-29
  sensitivity to AS1411: sensitivity
HL-60 (AML cell line)
  IC50: low
SK-MEL-28
  sensitivity to AS1411: sensitivity
KG-1 (AML cell line)
  IC50: low
AML cell line
  DNA fragmentation: dose-dependent increase
  PS externalization: increase
  apoptosis: induction
  caspase activity: increase
  cell cycle effect in tumor cells: arrest at the S-phase
CALU06
  sensitivity to AS1411: sensitivity

## Nc1ccn([C@@H]2O[C@H](CO)[C@@H](O)[C@@H]2O)c(=O)n1 [Cytarabine, 1β-arabinofuranosylcytosine, reference compound]
[1]; cytarabine 0.002 to 1.5 μM with 1 μM AS1411 vs cytarabine alone
  reduction of IC50 of cytarabine by combination with AS1411: more than three-fold
[2]; Day 0 (defined as 1)
  Relative tumor volume (relative to tumor volume at Day 0 of treatment): 1.000
[2]; Day 4
  Relative tumor volume (relative to tumor volume at Day 0 of treatment): 1.900
  Fractional Tumor Volume (FTV) relative to untreated controls: 0.713
[2]; Day 7
  Relative tumor volume (relative to tumor volume at Day 0 of treatment): 3.100
  Fractional Tumor Volume (FTV) relative to untreated controls: 0.844
[2]
  Average volume of tumors at 7 days post-treatment (tumor volume change): Average = 3.1
  Volume of individual tumors at 7 days post-treatment (indicating tumor volume change): 7.2 and 3.5 and 2.8 and 1.5 and 2.4 (2×) and 3.4 and 2.5 and 2.2 and 1.1
